{
  "source": "paper PMC4001772",
  "about": "(The Journal of General Physiology, 2014)",
  "assay_in_all_cases": "inside-out patch clamp of Xenopus oocytes",
  "format_in_all_cases": "cell-based",
  "key": {"CFTR [1]": {"molecular_target": "T1, CFTR (Homo sapiens, UniProt P13569)", "T1 sequence (P13569 whole entry)": "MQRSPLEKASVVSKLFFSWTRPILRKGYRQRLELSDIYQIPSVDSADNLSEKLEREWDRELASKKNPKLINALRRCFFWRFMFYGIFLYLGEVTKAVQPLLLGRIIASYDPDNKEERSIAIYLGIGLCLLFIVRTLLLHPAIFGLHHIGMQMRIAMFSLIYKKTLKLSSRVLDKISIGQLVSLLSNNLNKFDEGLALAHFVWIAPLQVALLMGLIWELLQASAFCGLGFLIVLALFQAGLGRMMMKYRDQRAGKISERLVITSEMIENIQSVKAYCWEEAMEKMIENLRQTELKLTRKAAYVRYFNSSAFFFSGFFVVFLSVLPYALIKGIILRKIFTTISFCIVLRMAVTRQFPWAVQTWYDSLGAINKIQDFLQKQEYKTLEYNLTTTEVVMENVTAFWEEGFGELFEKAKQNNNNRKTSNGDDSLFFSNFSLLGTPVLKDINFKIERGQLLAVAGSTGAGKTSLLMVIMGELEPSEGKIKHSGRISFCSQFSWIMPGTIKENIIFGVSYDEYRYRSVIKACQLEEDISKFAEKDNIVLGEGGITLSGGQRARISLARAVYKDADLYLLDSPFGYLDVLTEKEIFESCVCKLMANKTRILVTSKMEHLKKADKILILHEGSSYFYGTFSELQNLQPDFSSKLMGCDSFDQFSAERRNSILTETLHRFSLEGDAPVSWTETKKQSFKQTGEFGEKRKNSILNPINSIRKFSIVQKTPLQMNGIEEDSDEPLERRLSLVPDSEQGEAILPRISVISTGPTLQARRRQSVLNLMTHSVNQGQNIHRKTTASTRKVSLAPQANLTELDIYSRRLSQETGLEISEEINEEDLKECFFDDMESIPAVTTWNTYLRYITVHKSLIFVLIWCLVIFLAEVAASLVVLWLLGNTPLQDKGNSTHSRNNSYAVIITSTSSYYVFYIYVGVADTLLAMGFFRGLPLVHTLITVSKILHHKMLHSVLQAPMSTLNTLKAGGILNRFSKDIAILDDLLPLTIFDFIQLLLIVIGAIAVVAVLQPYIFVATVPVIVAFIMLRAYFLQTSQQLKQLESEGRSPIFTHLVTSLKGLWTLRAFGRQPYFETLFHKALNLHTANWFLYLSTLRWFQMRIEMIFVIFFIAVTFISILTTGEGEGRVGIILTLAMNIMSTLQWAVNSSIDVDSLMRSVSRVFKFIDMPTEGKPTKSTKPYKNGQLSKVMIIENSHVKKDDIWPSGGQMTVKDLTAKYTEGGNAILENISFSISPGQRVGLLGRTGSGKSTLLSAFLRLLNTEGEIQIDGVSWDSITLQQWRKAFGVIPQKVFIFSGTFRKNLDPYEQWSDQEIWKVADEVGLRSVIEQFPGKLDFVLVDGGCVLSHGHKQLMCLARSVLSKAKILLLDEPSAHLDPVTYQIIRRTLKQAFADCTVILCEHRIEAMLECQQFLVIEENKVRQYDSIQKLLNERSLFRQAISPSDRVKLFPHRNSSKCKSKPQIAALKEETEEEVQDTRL"}, "CFTR [2]": {"molecular_target": "CFTR (Homo sapiens, UniProt P13569, E1371S)", "sequence (P13569 whole entry E1371S)": "as the sequence (P13569 whole entry) above, with E1371S counted along it"}, "CFTR [3]": {"molecular_target": "CFTR (Homo sapiens, UniProt P13569, K1250A)", "sequence (P13569 whole entry K1250A)": "as the sequence (P13569 whole entry) above, with K1250A counted along it"}, "CFTR [4]": {"molecular_target": "T1, CFTR", "remark": "listed apart in the source"}},
  "data": [
    {"smiles": "O=S(=O)(O)CCCN1CCOCC1", "note": "[MOPS]", "values": [
      {"measurement": "Ki", "setting": "CFTR [1]", "result": "~15000", "unit": "µM"},
      {"measurement": "Ki", "setting": "CFTR [2]", "result": "~8000", "unit": "µM"}
    ]},
    {"smiles": "O=C(O)c1cc([N+](=O)[O-])ccc1NCCCc1ccccc1", "note": "[NPPB, 5-nitro-2-(3-phenylpropylamino)benzoate]", "values": [
      {"measurement": "EC50", "setting": "CFTR [3]", "result": "~100", "unit": "µM"},
      {"measurement": "EC50", "setting": "CFTR [4]", "result": "~90", "unit": "µM"},
      {"measurement": "Ki", "setting": "CFTR [2]", "result": "~20", "unit": "µM"}
    ]}
  ]
}
